# Laboratory results from US20230416196A1, “DIMER OF BIGUANIDINES AND THEIR THERAPEUTIC USES” (INSTITUT CURIE, priority 2020, published 2023).
# What was measured:
# [1] = system: MCF7, FC1242 and DU-145 cells; assay: Cell viability in epithelial versus mesenchymal state (TGF-β or OSM induced EMT); format: cell-based, human, mouse; conditions: EMT induced with TGF-β or OSM; FIG. 7
# Procedure: Cell viability assay (IC50). Cell viability assay was carried out by plating 1000 cells/well in 96-well plates. Cells were treated for 72 h in a range between to 25 nM and […] using serial dilutions. The inventors followed the manufacturer's protocol. In brief, CellTiter-Blue® reagent (G8081, Promega) was added after 72 h treatment and cells were incubated for 3 h before recording fluorescence intensities (λex. 560/20 nm; λem. 590/10 nm) using a Perkin Elmer Wallac 1420 Victor2 Microplate Reader.
# (§1) Cell culture. MCF7 (ATCC) cells, DU-145 (ATCC) cells and FC1245 cells were cultured in Dulbecco's Modified Eagle Medium GlutaMAX (DMEM, ThermoFisher Scientific, 61965059) supplemented with 10% Fetal Bovine Serum (FBS, Gibco, 10270-106) and Penicillin-Streptomycin mixture (BioWhittaker/Lonza, DE17-602E) unless stated otherwise. Primary lung circulating tumor cells (Celprogen, 36107-34CTC, Lot 219411) were grown using stem cell complete media (Celprogen, M36102-29PS) until the third passage. Circulating cancer cells were grown in stem cell ECM T75-flasks (Celprogen, E36102-29-T75) and ECM 6-well plates (Celprogen, E36102-29-6Well). […]
# [2] = system: αKG in activated MDM; assay: α-Ketoglutarate (αKG) fluorometric quantification in activated MDM; format: cell-based, human; conditions: Met 10 mM, LCC-12 10 μM; FIG. 3B
# Procedure: Cell culture. Peripheral blood samples were collected from distinct healthy donors (Etablissement Français du Sang). Pan monocytes were isolated by negative magnetic sorting using microbeads according to the manufacturer's instructions (Miltenyi Biotec, 130-096-537), and cultured in RPMI 1640 supplemented with glutamine (Thermo Fisher Scientific, 61870010), 10% fetal bovine serum and exposed to granulocyte-macrophage colony-stimulating factor (GM-CSF, Miltenyi Biotec, 130-093-866, 100 ng/mL) to induce differentiation into macrophages (MDM). […]
# α-Ketoglutarate (αKG) measurements. αKG was quantified using a fluorometric assay (Abcam, ab83431) according to the manufacturer's protocol. […] Cells were subsequently washed with ice-cold 1×PBS and counted. […] Samples were centrifuged at 13000× g for 15 min and the supernatants collected. αKG levels were measured using a standard curve and a control to subtract pyruvate background levels. Fluorescence intensities (ex. 535 nm; em. 590 nm) were recorded using a Perkin Elmer Wallac 1420 Victor2 Microplate Reader, and data were normalized against cell number. […]
# [3] = system: EMT induction (E-cadherin, Fibronectin, Slug); assay: Western blot of epithelial and mesenchymal markers upon EMT induction; format: cell-based; conditions: TGF-β or OSM; FIG. 8D
# Procedure: as §1
# Western Blotting. […] Proteins were solubilized in 2× Laemmli buffer containing benzonase (VWR, 70664-3, 1:100), extracts were incubated at 37° C. for 1 h, and quantified using a NanoDrop 2000 spectrophotometer (ThermoFisher Scientific). […] Antigens were detected using the SuperSignal West Pico PLUS chemiluminescent detection kits (ThermoFisher Scientific, 34580 and 34096). Signals were recorded using a Fusion Solo S Imaging System (Vilber) and quantified as indicated using ImageJ. […]
smiles,measurement,setting,value
"N=C(N)NC(=N)NCCCCCCCCCCCCNC(=N)NC(=N)N [LCC-12, lipophilic copper clamp C12]",IC50-values in mesenchymal state compared to epithelial counterpart,[1],lower IC50-values in cells in the mesenchymal state compared to the epithelial counterpart
same,increase of αKG in activated MDM,[2],more potent than Met at a dose 1000-fold lower
same,"EMT induction (E-cadherin, Fibronectin, Slug levels)",[3],antagonized EMT induction
